Assays:
P-gp = P-gp (Homo sapiens, UniProt P08183); assay: Semi-quantitative MS analysis of enriched AMEND preparations from control and P-gp knockdown T84 cells; conditions: for Average (relative abundance, normalized to anandamide-d8 standard): anandamide-d8 standard at 1 μg/μL
Text: Generation of P-gp knockdown T84 cell lines. Purified DNA containing shRNA constructs targeting the mdr1a gene in a pLK0.1 plasmid background was obtained from the UMass RNAi core. Constructs were as follows: B4 (Clone ID: TRCN0000059683), B5 (Clone ID: TRCN0000059684), B6 (Clone ID: TRCN0000059685), B7 (Clone ID: TRCN0000059686), B8 (Clone ID: TRCN0000059687). Lentiviruses were produced by transfecting packaging cells (293T) with psPAX2, pMD.2G, and pLK0.1 plasmid constructs, using Trans-IT-LT1 lipid (Mirus Bio). After 48 hours, lentiviral supernatants were harvested, combined with 8 μg/mL polybrene (Sigma-Aldrich) and applied to T84 cells in 20% confluent monolayers. This process was repeated 24 hours later, and 48 hours following the second transfection, resistant cells were selected with 5 μg/mL puromycin.
Production of enriched AMEND. T84 cells were grown as confluent monolayers in 162 cm^2 flasks and equilibrated in Hanks Buffered Saline Solution with Mg^2+/Ca^2+ (HBSS+/+) at 37° C., 5% CO2. […] Cell supernatants collected over the course of five hours were pooled from 30 flasks, lyophilized, resuspended in water and ultrafiltered through Amicon 1,000-Da cutoff membrane (Millipore) with N2 positive pressure. Samples were captured on a C18 Bakerbond® SepPak column, washed with water and hexane, eluted with methanol, dried under N2 gas and stored at −80° C. Before use in migration experiments, samples were resuspended in HBSS+/+as needed. For screening in the DiscoveRx GPCR β-arrestin activity assay (Fremont, CA), samples were resuspended in PBS to provide a 1000× solution for screening.
LC/MS analysis of AMEND. MeOH-eluted preparations as above were dried under a stream of N2 (g), re-suspended in MeOH/buffer and separated by HPLC using a Vydac (Hesperia, CA) C18 (10 um; 300 Å) semi-preparative column ([…]). Active AMEND fractions were characterized by HPLC/Mass spectrometry (Genesis C18 (4 um, 120 Å) analytical HPLC column (4.6×150 mm) equilibrated with 5 mM triethylamine acetic acid (pH 7.2) with the effluent analyzed by using a Finnigan LCQDeca electrospray mass spectrometer.
Selected samples were analyzed for high mass accuracy determination and solubilized in 50:50 acetonitrile:H2O with 0.2% formic acid. A MAXIS-HD ultra-high resolution quadrupole time-of-flight (UHR-ESI-QTOF) mass spectrometer (Bruker Daltonik GmbH, Bremen, Germany) was used; this was coupled to a syringe driver (Hamilton, Bonaduz, Switzerland) with the sample solution being infused at a rate of 3 μL/min.
Nitrogen acted as the nebulizing gas, applied at a pressure of 2 bar. The drying gas was also nitrogen, supplied at a flow rate of 8 L/min and a temperature of 200° C. Positive ion mode was used with a corresponding capillary voltage of −4500V. Only full scan data was acquired. For each batch of samples a solution of 5 mM sodium formate clusters was also analysed. This acted as an external data file calibrant over the mass range 75-1000 m/z. The recalibrated detected mass and isotope pattern were used in the FindFormula tool to generate a list of potential theoretical formulae within 2 mDa of the detected mass. The detected isotope pattern was used to sort this list.
Data acquisition and automated processing was controlled via Compass OpenAccess 1.7 software (Bruker Daltonik GmbH, Bremen, Germany), and data processing was carried out using DataAnalysis 3.4 (Bruker Daltonik GmbH, Bremen, Germany). At each step care was taken to avoid sample degradation and oxidation by maintaining them on ice and under N2 gas as much as possible. Relative quantification by ion intensities was performed by the summation of intensities for protonated and sodiated ions to compensate for possible variation in adduct formation due to varying biological sodium levels.
With respect to Table 2, semi-quantitative MS analysis was performed to compare enriched AMEND preparations from control T84 cells to those with shRNA-mediated P-gp knockdown (B4-mdr1a and B5-mdr1a).

[1] = tested on: HXA3-induced neutrophil migration; assay: 96-well neutrophil migration assay (modified Boyden chamber, cell-free); assay type: cell-based, human; conditions: for AMEND inhibitory activity of purified compounds in the cell-free migration assay: FIG. 2F
Description: Supernatants from T84 epithelial monolayers were enriched for lipids and tested for ability to inhibit HXA3-induced migration in a 96-well modified Boyden chamber assay (FIG. 2A). In order to compare across experiments with different donors, migration values within individual experiments were normalized to enriched HXA3 with vehicle treatment. […] FIG. 2C performed as in FIG. 2A, but prior to use in the migration assays enriched T84 supernatants were pretreated with FAAH or MAGL at 37 °C for 30 min. […] Commercially available endocannabinoids and related compounds were tested in the 96 well migration assay (FIG. 2F). Compounds were used at the highest concentration at which they were soluble in PBS. Data are mean+/−SEM of at least 3 independent experiments, *=p<0.05 and **=p<0.01 by one-way ANOVA.
96-well neutrophil migration.
Purified compounds used in migration assays.

MRP1 = MRP1 (Homo sapiens, UniProt P33527); conditions: low affinity substrate of MRP1; cited from earlier work
Sequence of MRP1 (P33527 whole entry): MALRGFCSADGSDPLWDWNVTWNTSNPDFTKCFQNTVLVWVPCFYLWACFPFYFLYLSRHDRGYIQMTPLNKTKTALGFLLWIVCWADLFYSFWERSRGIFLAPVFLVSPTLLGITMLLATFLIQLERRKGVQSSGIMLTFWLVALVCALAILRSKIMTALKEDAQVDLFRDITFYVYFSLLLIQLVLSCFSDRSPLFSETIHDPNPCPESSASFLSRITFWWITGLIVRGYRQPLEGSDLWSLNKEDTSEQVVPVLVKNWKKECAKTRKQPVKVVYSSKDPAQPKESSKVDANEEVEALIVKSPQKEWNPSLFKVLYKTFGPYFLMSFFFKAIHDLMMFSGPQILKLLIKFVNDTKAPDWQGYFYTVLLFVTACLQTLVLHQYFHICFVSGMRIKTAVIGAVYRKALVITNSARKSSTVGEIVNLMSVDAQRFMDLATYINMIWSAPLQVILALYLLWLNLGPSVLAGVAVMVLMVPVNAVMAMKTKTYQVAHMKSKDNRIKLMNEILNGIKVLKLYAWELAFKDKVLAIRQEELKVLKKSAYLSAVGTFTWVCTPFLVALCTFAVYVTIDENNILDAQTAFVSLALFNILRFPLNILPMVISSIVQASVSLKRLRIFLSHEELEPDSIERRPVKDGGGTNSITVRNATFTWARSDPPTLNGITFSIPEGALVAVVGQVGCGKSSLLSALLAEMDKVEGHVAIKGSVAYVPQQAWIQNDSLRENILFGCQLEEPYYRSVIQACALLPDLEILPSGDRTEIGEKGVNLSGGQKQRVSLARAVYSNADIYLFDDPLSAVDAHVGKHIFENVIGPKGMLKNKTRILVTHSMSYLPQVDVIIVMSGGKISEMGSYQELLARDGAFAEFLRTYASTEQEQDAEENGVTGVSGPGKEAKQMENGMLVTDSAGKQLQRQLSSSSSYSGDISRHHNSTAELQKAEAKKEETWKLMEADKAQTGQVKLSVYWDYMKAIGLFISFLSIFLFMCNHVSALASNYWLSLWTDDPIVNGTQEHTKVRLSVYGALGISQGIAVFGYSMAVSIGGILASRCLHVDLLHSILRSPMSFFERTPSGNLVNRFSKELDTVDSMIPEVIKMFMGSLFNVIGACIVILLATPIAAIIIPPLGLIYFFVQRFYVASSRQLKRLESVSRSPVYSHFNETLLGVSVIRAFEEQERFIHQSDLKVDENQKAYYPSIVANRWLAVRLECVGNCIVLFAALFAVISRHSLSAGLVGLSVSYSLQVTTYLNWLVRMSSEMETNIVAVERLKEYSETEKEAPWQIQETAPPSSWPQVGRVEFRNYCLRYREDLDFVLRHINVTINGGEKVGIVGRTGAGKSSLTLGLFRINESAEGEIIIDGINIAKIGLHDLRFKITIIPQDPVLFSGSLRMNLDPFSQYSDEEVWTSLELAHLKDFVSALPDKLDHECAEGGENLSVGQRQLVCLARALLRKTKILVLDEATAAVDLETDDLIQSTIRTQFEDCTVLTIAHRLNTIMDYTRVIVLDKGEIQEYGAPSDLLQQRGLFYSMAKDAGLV

[2] = tested on: C57BL/6 mice infected with Streptococcus pneumoniae; assay: S. pneumoniae lung infection of mice with MRP2 inhibition; assay type: in vivo
Description: FIGS. 19A-19E. MRP2 inhibition in vivo. Using an in vitro model of neutrophil migration, we examined the results of MRP2 inhibition. MRP2 inhibition via Probenecid treatment results in a reduction of neutrophils migrating in a basolateral-to-apical direction (FIG. 19A). Following this in vitro result, C57/B16 mice were treated with either PBS or Probenecid and subsequently infected with Streptococcus pneumoniae. Mice treated with probenecid had fewer Cd11b-positive/Ly6g-positive cells (neutrophils) in the bronchoalveolar lavage (BAL) isolated from infected lungs (FIG. 19B).
S. pneumoniae infection under conditions where MRP2 function was impeded with probenecid was examined. C57BL/6 mice were infected with between 1×10^5 and 3×10^5 bacteria via the trachea, leading to lobar pneumonia and progressing to bacteremia and sepsis, after which the mice succumb to infection. Probenecid was delivered 3 hours prior to infection as a primer and again at 3-hours post-infection.

[3] = tested on: neutrophil migration across NIH-H292 cells infected with Streptococcus pneumoniae; assay: In vitro PMN transepithelial migration across H292 monolayers infected with S. pneumoniae; assay type: cell-based, human; conditions: 100 μM pretreatment before infection with 10 MOI Streptococcus pneumoniae, vs mock-treated (FIG. 19A, FIG. 20D)
Description: S. pneumoniae can induce PMN transepithelial migration across model lung epithelia where a well-established in vitro model system is utilized. Briefly, H292 cells are seeded on permeable supports to form a barrier, thereby mimicking the in vivo architecture. Freshly isolated human neutrophils are then applied to the basolateral chamber of the transwell, allowing the neutrophils to transverse the epithelial layer in response to chemoattractants released by the epithelium.
Using an in vitro model of neutrophil (PMN) migration, we examined the results of MRP2 inhibition. NIH-H292 cells were incubated with 100 μM of the MRP2 inhibitor Probenecid (horizontal striped) or mock treated with PBS (black) before infection. Both control and probenecid treated cells were then washed and infected with 10 MOI Streptococcus pneumoniae. Neutrophils were placed in the basolateral chamber of the membrane construct and allowed to migrate post-infection. Neutrophils that have traveled to the apical chamber were quantified with a modified myeloperoxidase assay against a standard number of neutrophils. Shown in FIG. 20D is a representative data set that has been repeated at least 3 times. […] Uninfected cells are represented in white, labeled “Buffer”. Statics performed using unpaired T-test.

[4] = B4-mdr1a P-gp knockdown T84 cells
[5] = B4-mdr1a P-gp knockdown vs control T84 cells
[6] = B5-mdr1a P-gp knockdown T84 cells
[7] = B5-mdr1a P-gp knockdown vs control T84 cells
[8] = used at 0.01 mg/mL (highest concentration soluble in PBS, diluted 1:10)

Sequence of P-gp (P08183 whole entry): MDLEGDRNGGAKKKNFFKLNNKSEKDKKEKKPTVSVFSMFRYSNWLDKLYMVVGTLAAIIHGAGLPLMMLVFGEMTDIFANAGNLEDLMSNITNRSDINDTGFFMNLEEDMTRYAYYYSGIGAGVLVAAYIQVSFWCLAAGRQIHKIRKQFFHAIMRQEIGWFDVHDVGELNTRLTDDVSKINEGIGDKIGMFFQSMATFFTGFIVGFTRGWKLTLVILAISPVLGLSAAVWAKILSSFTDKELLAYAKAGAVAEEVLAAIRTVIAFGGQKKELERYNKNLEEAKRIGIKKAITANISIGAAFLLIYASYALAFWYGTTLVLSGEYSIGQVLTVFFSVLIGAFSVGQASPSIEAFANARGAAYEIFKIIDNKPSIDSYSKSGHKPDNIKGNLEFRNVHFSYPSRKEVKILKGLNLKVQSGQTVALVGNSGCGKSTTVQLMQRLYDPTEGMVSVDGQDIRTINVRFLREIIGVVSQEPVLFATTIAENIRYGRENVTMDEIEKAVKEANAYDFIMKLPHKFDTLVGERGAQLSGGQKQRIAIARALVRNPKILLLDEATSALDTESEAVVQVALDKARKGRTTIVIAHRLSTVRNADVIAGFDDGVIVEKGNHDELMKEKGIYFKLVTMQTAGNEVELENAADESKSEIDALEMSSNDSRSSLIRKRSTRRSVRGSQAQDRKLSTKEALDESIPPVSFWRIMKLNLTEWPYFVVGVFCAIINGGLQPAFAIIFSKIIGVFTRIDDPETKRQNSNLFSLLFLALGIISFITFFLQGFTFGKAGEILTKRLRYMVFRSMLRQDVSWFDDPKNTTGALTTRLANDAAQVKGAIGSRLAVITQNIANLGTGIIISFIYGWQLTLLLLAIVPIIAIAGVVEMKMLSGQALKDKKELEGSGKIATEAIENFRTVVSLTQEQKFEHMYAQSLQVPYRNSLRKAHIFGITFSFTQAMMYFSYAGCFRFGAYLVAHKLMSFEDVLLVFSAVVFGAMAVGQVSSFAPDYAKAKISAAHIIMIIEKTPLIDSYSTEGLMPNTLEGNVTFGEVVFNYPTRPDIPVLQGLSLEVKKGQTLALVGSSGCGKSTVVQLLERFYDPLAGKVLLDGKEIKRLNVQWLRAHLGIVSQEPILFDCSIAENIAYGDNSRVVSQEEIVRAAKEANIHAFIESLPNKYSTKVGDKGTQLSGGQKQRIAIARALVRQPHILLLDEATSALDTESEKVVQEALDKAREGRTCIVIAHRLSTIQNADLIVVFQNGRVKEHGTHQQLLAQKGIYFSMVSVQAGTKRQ

Compound: CCCCC/C=C\C/C=C\C/C=C\C/C=C\CCCC(=O)OC(CO)CO [2-Arachidonoyl Glycerol (2-AG), 2-arachidonoyl glycerol]
- Average (relative abundance, normalized to anandamide-d8 standard) (P-gp; [4]): 32.17
- % of Control (P-gp; [5]): 91%
- Average (relative abundance, normalized to anandamide-d8 standard) (P-gp; [6]): 29.47
- % of Control (P-gp; [7]): 83%
- Average (relative abundance, normalized to anandamide-d8 standard) (P-gp; control T84 cells): 35.53

Compound: CCCCC/C=C\C/C=C\C/C=C\C/C=C\CCCC(=O)NCCO [Anandamide (AEA), Arachidonoyl ethanolamide]
- AMEND inhibitory activity of purified compounds in the cell-free migration assay [1, 8]: significant inhibitory activity

Compound: N[C@@H](CCC(=O)N[C@@H](CS)C(=O)NCC(=O)O)C(=O)O [Glutathione]
- Km (MRP1): 1000 to 5000 µM

Compound: CCCCC[C@H](O)/C=C/C=C\C=C\C=C\[C@@H](O)[C@@H](O)CCCC(=O)O [Lipoxin A4]
- inhibitory activity on HXA3-induced migration after treatment with FAAH ([1]; pretreated with FAAH at 37°C for 30 min, Lipoxin used at 10 nM (FIG. 2C, FIG. 8)): not sensitive
- inhibitory activity on HXA3-induced migration after treatment with MAGL ([1]; pretreated with MAGL at 37°C for 30 min, Lipoxin used at 10 nM (FIG. 2C, FIG. 8)): not sensitive

Compound: CCCCC/C=C\C/C=C\C/C=C\C/C=C\CCCC(=O)NCCc1ccc(O)c(O)c1 [N-Arachidonoyl Dopamine]
- Average (relative abundance, normalized to anandamide-d8 standard) (P-gp; [4]): 1.97
- Average (relative abundance, normalized to anandamide-d8 standard) (P-gp; [6]): 1.90
- Average (relative abundance, normalized to anandamide-d8 standard) (P-gp; control T84 cells): 0.00

Compound: CCCCC/C=C\C/C=C\C/C=C\C/C=C\CCCCOC(CO)CO [Noladin ether]
- Average (relative abundance, normalized to anandamide-d8 standard) (P-gp; [4]): 154.03
- % of Control (P-gp; [5]): 461%
- Average (relative abundance, normalized to anandamide-d8 standard) (P-gp; [6]): 56.23
- % of Control (P-gp; [7]): 168%
- Average (relative abundance, normalized to anandamide-d8 standard) (P-gp; control T84 cells): 33.43

Compound: CCCCCCCC/C=C\CCCCCCCC(=O)NCCO [Oleoyl ethanolamide (OEA), Oleoyl ethanolamide]
- AMEND inhibitory activity of purified compounds in the cell-free migration assay [1, 8]: significant inhibitory activity

Compound: CCCN(CCC)S(=O)(=O)c1ccc(C(=O)O)cc1 [Probenecid]
- reduction in bacteremia ([2]; 48 post-infection, no longer statistically significant (FIG. 19C)): 10 fold
- number of bacteria in the lung ([2]; 48 hours post-infection): the same
- other granulocytes in the mouse lung ([2]; Cd11b+/Cd45+/Ly6g- granulocytes (FIG. 19D)): no reduction
- lower CFU in the blood of mice that developed bacteremia, compared to PBS-treated mice ([2]; D1 post-infection (FIG. 19C)): approximately 10 fold
- cases of bacteremia ([2]; D1 post-infection, vs PBS-treated mice (FIG. 19C)): fewer cases
- fewer neutrophils in bronchoalveolar lavage fluid (BALF) than PBS-treated mice ([2]; Day 1 post-infection, delivered 3 hours prior to and 3 hours post-infection (FIG. 19B)): 35%
- difference in the bacterial CFU in mice that did not develop bacteremia ([2]; failed to reach statistical significance (FIG. 19E)): approximately 2 fold
- number of neutrophils migrating basolateral-to-apical across infected H292 monolayers [3]: effectively reduced
- number of neutrophils migrating basolateral-to-apical across infected H292 monolayers ([3]; listed as probenecid): significantly fewer

Compound: CC/C=C\C/C=C\C/C=C\CCCCCCCC(=O)NCCO [α-LEA, α-Linolenoyl Ethanolamide]
- AMEND inhibitory activity of purified compounds in the cell-free migration assay ([1]; used at 0.005 mg/mL (highest concentration soluble in PBS, diluted 1:10)): significant inhibitory activity
